Measured values from patent publication US11466054B2, “Inhibitors of metastasis” (BIOMARCK PHARMACEUTICALS LTD., priority 2013, dated 2022).
Where no end group is shown, it is not given here. The star is where a group is joined. Myristoyl = CCCCCCCCCCCCCC(=O)*

What was measured:
CL1-5 cells = test: Transwell migration assay, CL1-5 cells pretreated with peptide; format: cell-based, human; conditions: 12 hours; for cell number: control approximately 105;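 for migration index: index equals control cell count divided by treated cell count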
Protocol: CL1-5 cells, an aggressively metastatic cell line derived from a human adenocarcinoma, were cultured in RPMI 1640 media with 10% FBS, 37° C. at 95% […]/5% CO2 until ready for use. Transwell plates (24-well, 8-um pore size; Costar, Cambridge, Mass., USA) were used to conduct the migration assay. The lower chambers of the Transwell plates were filled with 600 μl of basal media containing 10% FBS. The cells (1×10^5) were pretreated with 50 or 100 μM of the indicated test peptide for 30 min, and then suspended in 100 μl of basal media containing 1% BSA and added to the upper chamber, and the cells then were incubated at 37° C. for 12 hr. The cells on the upper surface of the filters were removed using cotton swabs, and the cells that migrated to the lower surface of the filters were washed, fixed, and stained with hematoxylin and counted under the microscope. The percent change in migration was determined by counting the number of cells that migrated to the lower surface of the filters. At least 3 separate microscopic fields were counted per membrane (n=4).
Primary CL1-5 cells originated from human adenocarcinoma lung cancer Transwell plates with 24-wells, 8-μ pore size (Costar, Cambridge, Mass., USA) were used to conduct the migration assay. The lower chambers of the transwell plates were filled with 600 μL of basal media containing 10% FBS. The cells (1-2×10^5) were suspended in 100 μL of basal media containing 1% BSA. The test peptide at desired concentration was added to the upper chamber directly or after preincubation with cancer cells. The plates were then incubated at 37° C. for 12 hours. The cells on the upper surface of the filters were removed using cotton swabs. The cells that migrated to the lower surface of the filters were washed, fixed, and stained with hematoxylin and counted under the microscope. At least five separate microscopic fields are counted per membrane (n=3). The percent change in migration was determined by counting the number of cells that migrated to the lower surface of the filters.
The count means the actual number of cells which migrated to the lower chamber and counted by a light microscope at 40× magnification, presented as the mean number of cells in 10 randomly chosen fields for each treatment.
The “index” was calculated by dividing the number of cells that migrated in the presence of peptides by the number of cells that migrated randomly (control group). […]. This calculation can reflect the extent that the migration of cells was blocked by 30 minute pretreatment with MANS-related peptides.

PC-9 cells = test: Orthotopic lung injection xenograph model, PC-9 cells in nude mice; format: in vivo; conditions: 50 nmoles i.p. once every three days, 25 days; for No. of Metastatic Lung Tumors Mean ± SE (L't): left lung; for No. of Metastatic Lung Tumors Mean ± SE (R't): right lung; for Tumor Size (mm) Mean ± SE: tumor at site of injection, cells pretreated 100 μM 4 hours
Protocol: The metastatic activity of cancer cells in vivo after treatment with MANS peptide or BIO-11006 was assessed in the orthotopic lung injection xenograph model. After pretreatment with either PBS, or PBS+MANS, BIO-11006 (SEQ ID NO: 106), or the control RNS peptide at 100 μM for 4 hours, PC-9 cells were injected into the left lobe of the lung of nude mice. Seven days later, these mice were given systemic treatment with either PBS only (Con), RNS (additional control peptide), MANS or BIO-11006 at 50 nmoles per intraperitoneal injection once every three days. At 25 days (6 injections) post-seeding of these tumor cells, mice were sacrificed and the number of metastasized tumor nodules in the contralateral lung and other organs was counted.

A549 = test: Transwell migration assay, A549 cells; format: cell-based, human; conditions: 12 hr; for migration index numbers relative to control and to RNS peptide / migrated cell numbers relative to control and to RNS peptide: A549, 50 μm; for migrated cell numbers relative to control and to RNS peptide / cell numbers in comparison to control, RNS peptide and MANS peptide: FIG. 11; for cell numbers in comparison to control, RNS peptide and MANS peptide: A549, 25 μm
Protocol: The human adenocarcinoma-derived alveolar epithelial cell line A549 (an invasive cell line) was obtained from the American Type Culture Collection (ATCC) and was cultured in RPMI-1640 supplemented with 10% fetal bovine serum and 100 U/ml penicillin/streptomycin, in 75 cm^2 tissue culture flasks. The cells reached confluence by the third day of culture at 37° C. in an atmosphere of 95% air and 5% CO2 and were maintained by serial passage.
The test peptides (MANS, RNS, BIO-11006, BIO-11000, BIO-11002, BIO-91200, and BIO-10901) were dissolved in PBS at a pH of 7.0; slow vortex mixing for about two hours aided solubility.
Transwell plates (24-well, […]; Costar, Cambridge, Mass., USA) were used to conduct the migration assay. The lower chambers of the transwell plates were filled with 600 μl of basal medium containing 10% FBS. The cells (1×10^5) were suspended in 100 μl of basal medium containing 1% BSA and added to the upper chamber, and the plates incubated at 37° C. with 5% CO2 for 12 hr in PBS (control), or the indicated test peptides at 10, 25 or 50 μM. The cells on the upper surface of the filters were removed using cotton swabs. The cells that migrated to the lower surface of the filters were washed, fixed, and stained with hematoxylin and counted under the microscope. The percent change in migration is determined by counting the number of cells that migrated to the lower surface of the filters. At least four separate microscopic fields are counted per membrane, with a total of three replicate experiments at each concentration. The statistics software “Prizm” was used for data analysis.

A549 cells = test: Anti-metastatic efficacy in SCID mice given A549 cells via the tail vein; format: in vivo; conditions: Day 53; for No. of metastatic nodules in lungs Mean ± SEM: aerosol 100 μM every other day for 7 weeks
Protocol: Female NOD.CB17-Prkdc^scid/NCrHsd, Mus musculus mice (Harlan, The Netherlands), housed in individually ventilated cages, were randomized into six groups of eight mice each. A549 cells (2.5×10^6) were injected into the mice via the tail vein. The control group received aerosolized vehicle PBS; while the groups 2 and 3 received the aerosolized test compound BIO-11006 either from −1 day before the cancer cells injection (group 2) or from +3 days after the cancer cell injection (group 3) on every other day for 7 weeks via nebulizer (Aeroneb Lab). Groups 4 and 5 received the aerosolized test compound MANS peptide either from −1 day before the cancer cell line injection (group 4) or from +3 days after the cell line injection (group 5) on every other day for 7 weeks via a nebulizer (Aeroneb Lab). For aerosol delivery, solution of each test compound (100 μM) was prepared in PBS, pH 7.0. For each treatment, 5 mL of test compound solution was aerosolized over 30 minutes into a chamber containing four mice at a time. The mice were monitored for body weight every other day for 7 weeks.
One group of mice (n=7) served as normal control. These were untreated naïve mice used to monitor the health status of mice during the study period. All animals from all groups were sacrificed on Day 53. FIG. 15 compares number of metastatic nodules in lungs after respective administration of BIO-11006 and MANS peptide on Day 53 following A549 cell injection. […] There were few focal tumor nodules in ⅞ of mice treated with BIO-11006 peptide starting at either Day −1 or Day +3 relative to A549 cell injection.

[1] = CL1-5, 50 μmolar pretreatment, FIG. 9
[2] = CL1-5, 50 μmolar pretreatment, FIG. 9, control=1.0
[3] = CL1-5, 50 μmolar, FIG. 8A, control=1, higher value signifies less migration
[4] = CL1-5, 100 μmolar pretreatment, FIG. 10
[5] = CL1-5, 100 μmolar pretreatment, FIG. 10, control=1.0
[6] = CL1-5, 100 μmolar, FIG. 8B, control=1, higher value signifies less migration
[7] = CL1-5, pretreatment at 50 μmolar, FIG. 7A
[8] = CL1-5, pretreatment at 100 μmolar, FIG. 7B

With “GTAPAAEGAGAEVKRASAEAKQAF (Myristoyl-GTAPAAEGAGAEVKRASAEAKQAF) [RNS peptide, reference compound]” the cell number (CL1-5 cells; [1]) was “approximately 90”, the migration index (CL1-5 cells; [2]) was “approximately 1.3” and the migration index (CL1-5 cells; [3]) was “approximately 1.1”. The cell number (CL1-5 cells; [4]) was “approximately 95”, the migration index (CL1-5 cells; [5]) was “approximately 1.2” and the migration index (CL1-5 cells; [6]) was “approximately 1”. The migrated cell numbers (CL1-5 cells; [7]) was “approximately 95”, the migrated cell numbers (CL1-5 cells; [8]) was “approximately 90” and the “Metastases (affected mice/total mice) Diaphragm” value (PC-9 cells) was 3/4. For the same substance, the “Metastases (affected mice/total mice) Heart” value (PC-9 cells) was 3/4, the “Metastases (affected mice/total mice) Intestines” value (PC-9 cells) was 1/4 and the “Metastases (affected mice/total mice) Spleen” value (PC-9 cells) was 2/4. The “No. of Metastatic Lung Tumors Mean ± SE (L't)” value (PC-9 cells) was 1.00 ± 0.40;, the “No. of Metastatic Lung Tumors Mean ± SE (R't)” value (PC-9 cells) was 5.75 ± 2.01 and the “Tumor Size (mm) Mean ± SE” value (PC-9 cells) was 1.72 ± 0.41 mm.
For “N-acetyl-GAQFSKTAA (Ac-GAQFSKTAA; listed as Homo sapiens) [BIO-10901]”, the “migration index numbers relative to control and to RNS peptide” value (A549) was “increased migration index numbers”, the “migrated cell numbers relative to control and to RNS peptide” value (A549) was “decreased migrated cell numbers” and the migration index (CL1-5 cells; [3]) was “approximately 1.75”. For the same substance, the migration index (CL1-5 cells; [6]) was “approximately 2.7”, the migrated cell numbers (CL1-5 cells; [7]) was “approximately 60” and the migrated cell numbers (CL1-5 cells; [8]) was “approximately 35”.
In the case of “N-myristoyl-AKGE (Myristoyl-AKGE; listed as Homo sapiens) [BIO-91200]”, the “cell numbers in comparison to control, RNS peptide and MANS peptide” value (A549) is reported as “significantly reduced cell numbers”, the “migration index numbers relative to control and to RNS peptide” value (A549) is reported as “increased migration index numbers” and the “migrated cell numbers relative to control and to RNS peptide” value (A549) is reported as “decreased migrated cell numbers”. For the same substance, the migration index (CL1-5 cells; [3]) was “approximately 1.7”, the cell number (CL1-5 cells; [4]) was “approximately 55” and the migration index (CL1-5 cells; [5]) was “approximately 2.1”. For the same substance, the migration index (CL1-5 cells; [6]) was “approximately 2.4”, the migrated cell numbers (CL1-5 cells; [7]) was “approximately 65” and the migrated cell numbers (CL1-5 cells; [8]) was “approximately 40”.
For “N-myristoyl-GAQFSKTAAK (Myristoyl-GAQFSKTAAK; listed as Homo sapiens) [BIO-11000]”, the “migration index numbers relative to control and to RNS peptide” value (A549) was “increased migration index numbers”, the “migrated cell numbers relative to control and to RNS peptide” value (A549) was “decreased migrated cell numbers” and the cell number (CL1-5 cells; [1]) was “approximately 70”. For the same substance, the migration index (CL1-5 cells; [2]) was “approximately 1.5”, the cell number (CL1-5 cells; [4]) was “approximately 50” and the migration index (CL1-5 cells; [5]) was “approximately 2.3”.
“N-myristoyl-GAQFSKTAAK-NH2 (Myristoyl-GAQFSKTAAK-NH2; SMILES CCCCCCCCCCCCCC(=O)NCC(=O)N[C@@H](C)C(=O)N[C@@H](CCC(N)=O)C(=O)N[C@@H](Cc1ccccc1)C(=O)N[C@@H](CO)C(=O)N[C@@H](CCCCN)C(=O)N[C@H](C(=O)N[C@@H](C)C(=O)N[C@@H](C)C(=O)N[C@@H](CCCCN)C(N)=O)[C@@H](C)O) [BIO-11002]” was tested, and the “cell numbers in comparison to control, RNS peptide and MANS peptide” value (A549) was “significantly reduced cell numbers”, the “migration index numbers relative to control and to RNS peptide” value (A549) was “increased migration index numbers” and the “migrated cell numbers relative to control and to RNS peptide” value (A549) was “decreased migrated cell numbers”. The migration index (CL1-5 cells; [3]) was “approximately 2.7”, the migration index (CL1-5 cells; [6]) was “approximately 3.8” and the migrated cell numbers (CL1-5 cells; [7]) was “approximately 50”. For the same substance, the migrated cell numbers (CL1-5 cells; [8]) was “approximately 25”.
“N-myristoyl-GAQFSKTAAKGEAAAERPGEAAVA (Myristoyl-GAQFSKTAAKGEAAAERPGEAAVA; listed as Homo sapiens) [MANS peptide]” was tested, and the “animals with few focal tumor nodules” value (A549 cells; +3 Day treatment group) was “Few focal tumor nodules in 7/8”, the distant metastasis (A549 cells; +3 Day treatment group) was “No distant metastasis” and the “No. of metastatic nodules in lungs Mean ± SEM” value (A549 cells; +3 Day treatment group) was 13 ± 4. The “animals with few focal tumor nodules” value (A549 cells; −1 Day treatment group) was “Few focal tumor nodules in 4/8”, the distant metastasis (A549 cells; −1 Day treatment group) was “No distant metastasis” and the “No. of metastatic nodules in lungs Mean ± SEM” value (A549 cells; −1 Day treatment group) was 22 ± 7. For the same substance, the “migration index numbers relative to control and to RNS peptide” value (A549) was “increased migration index numbers”, the “migrated cell numbers relative to control and to RNS peptide” value (A549) was “decreased migrated cell numbers” and the cell number (CL1-5 cells; [1]) was “approximately 45”. For the same substance, the migration index (CL1-5 cells; [2]) was “approximately 2.5”, the migration index (CL1-5 cells; [3]) was “approximately 2.5” and the cell number (CL1-5 cells; [4]) was “approximately 35”. The migration index (CL1-5 cells; [5]) was “approximately 3.5”, the migration index (CL1-5 cells; [6]) was “approximately 4.3” and the migrated cell numbers (CL1-5 cells; [7]) was “approximately 40”. The migrated cell numbers (CL1-5 cells; [8]) was “approximately 20”, the “Metastases (affected mice/total mice) Diaphragm” value (PC-9 cells) was 0/4 and the “Metastases (affected mice/total mice) Heart” value (PC-9 cells) was 0/4. The “Metastases (affected mice/total mice) Intestines” value (PC-9 cells) was 0/4, the “Metastases (affected mice/total mice) Spleen” value (PC-9 cells) was 0/4 and the “No. of Metastatic Lung Tumors Mean ± SE (L't)” value (PC-9 cells) was 0; 0. For the same substance, the “No. of Metastatic Lung Tumors Mean ± SE (R't)” value (PC-9 cells) was 0; 0 and the “Tumor Size (mm) Mean ± SE” value (PC-9 cells) was 1.48 ± 0.54 mm.
